Assay results reported in US20110178052A1, “9-ALPHA ESTRATRIENE DERIVATIVES AS ER-BETA SELECTIVE LIGANDS FOR THE PREVENTION AND TREATMENT OF INTESTINAL CANCER” (Bayer Schering Pharma Aktiengesellschaft, priority 2008, published 2011).
“Also recorded” adds a separate entry of the source.

Tests used:
Assay type in all cases: in vivo, rat
OVX rats = assay: Uterine wet weights of ovariectomized rats after 3 weeks of treatment; details: for uterine wet weights: s.c., 3 weeks, E2 4 μg, GEN 10 mg, ALPHA 10 μg, BETA I 100 μg kg-1 b.wt d-1, vs OVX
Experimental: (§1) Post pubertal animals were ovariectomized (OVX) at the age of three months and weighing 200-220 g. After 14 days of endogenous hormonal decline the animals were treated with the test compounds or vehicle for three weeks. The animals were randomly allocated to treatment and vehicle groups (n=6). E2 (4 μg kg-1 b.wt d-1), GEN (10 mg kg-1 b.wt d-1), ALPHA (10 μg kg-1 b.wt d-1), BETA 1 (100 μg kg-1 b.wt d-1), BETA II (5-15-50 μg kg-1 b.wt d-1) and ICI (3 mg kg-1 b.wt d-1) were dissolved in dimethylsulfoxide (DMSO) (200 μl/KG b. wt/d) and corn oil (800 μl/KG b. wt/d) for s.c. administration.
(§2) Animals were sacrificed by decapitation after light anesthesia with CO2 inhalation. Uteri and intestinal tissues were prepared free of fat and were fixed in 4% formalin (for immunohistochemical analysis) and liquid nitrogen (for molecular biology). The uterine wet weights were determined.

PCNA [1] = assay: Immunohistochemical staining of PCNA in ileal mucosa cells; details: OVX rats, s.c., 3 weeks; E2 4 μg, GEN 10 mg, ALPHA 10 μg, BETA I 100 μg kg-1 b.wt d-1
Experimental: as §1, §2
(§3) Formalin-fixed intestinal samples were embedded in paraffin, sliced with a microtome (7 μm sections). After deparaffinization, antigen retrieval was performed in an incubator for 20 h at 60° C. in 0.01 M citrate buffer pH 6.0.
Subsequently, endogenous peroxidases were blocked for 20 min. with 3% hydrogen peroxide and the slides were covered with a 0,25% Triton X-100 solution for 10 min.
The primary antibody, PCNA Clone PC10 (Dako, Glostrup, Denmark) was applied at dilutions of 1:100, respectively.
After 1 h incubation with the primary antibodies, samples were incubated with the secondary antibody: Polyclonal Goat Anti-Mouse Immunglobulins/Biotinylated (Dako, Glostrup, Denmark).
Afterwards the sections were covered with Streptavidin-biotinylated Horseradish Peroxidase Complex (GE Healthcare, Little Chalfont Buckinghamshire, UK) at a dilution of 1:400. The samples were developed with DAB for 10 min. For negative controls, slides were immunostained in the absence of the primary antibody.
Quantitative analysis was performed in complete crypts of normal mucosa. Brown nuclear staining was indicative of a positive PCNA signal.

PCNA [2] = assay: Western Blot analysis of PCNA in ileal mucosa; details: for PCNA expression of intestinal mucosa cells, Western Blot densitometric evaluation: OVX rats, s.c., 3 weeks, E2 4 μg, GEN 10 mg, ALPHA 10 μg, BETA I 100 μg kg-1 b.wt d-1
Experimental: as §1
(§4) Ileal mucosa and rectal colon were dissected from the animals and immediately stored in liquid nitrogen. Pooled frozen tissue (n=6 animals per group) was powdered and homogenized in a buffer (623.5 nM Tris pH 8 EDTA) containing enzyme inhibitors (5 mg/ml aprotonin, 5 mg/ml leupeptin, 1 mg/ml pepstatin-A, 5 mg/ml antipain, 100 mM pefac in 0.5 M EDTA, pH 8). Protein concentrations were determined by the method of Lowry (Dc Protein Assay, Bio-Rad). Equal amounts of sample (40 μg protein) were loaded on a Protean II ready Gel (Bio-Rad).
(§5) After electrophoresis and separation, samples were transferred onto nitrocellulose membranes and blocked with 5% BSA in Phosphate (100 mM)-buffered saline solution (pH 7.4) at room temperature for 2 hours. The immobilized proteins were quantitatively detected using specific antibodies for actin and GAPDH (A5060 and G8795, Sigma-Aldrich, Steinheim, Germany), PCNA Clone PC 10 (Dako, Glostrup, Denmark), M30 Cytodeath (ALX-804-590, Alexis, San Diego, Calif., USA) and active caspase-3 (557035, BD Pharmingen, Heidelberg, Germany).
(§6) Polyclonal Swine Anti-Rabbit Immunglobulins/HRP and Polyclonal Rabbit Anti-Mouse Immunglobulins/HRP (P0217 and P0260, Dako, Glostrup, Denmark) were used as species-specific HRP-conjugated secondary antibodies.
(§7) Blot signals were visualized by the chemoluminescent POD-Substrate (Lumi-Light Plus, Roche Diagnostics, Mannheim, Germany) and a Fluorchem Luminescent Imager (Alpha Innotech, CA, USA).
(§8) The protein bands were quantified by densitometry using ImageJ 1.38. To account for in homogenous protein loading of the slots we calculated the ratio of […] (PCNA, M30, active caspase-3).

PCNA mRNA = PCNA mRNA expression in the intestinal mucosa; details: OVX rats, FIG. 3B
Experimental: as §1

active caspase-3 = assay: Western Blot analysis of active caspase-3 in ileal mucosa; details: for activation of caspase-3: OVX rats, s.c., 3 weeks, E2 4 μg, GEN 10 mg, ALPHA 10 μg, BETA I 100 μg kg-1 b.wt d-1
Experimental: as §1, §4, §5, §6, §7, §8

PCNA [3] = assay: Immunohistochemical staining of PCNA in colonic mucosa cells; details: OVX rats, immunohistochemistry of rectal colonic cross sections; BETA II at 5 μg/Kg
Experimental: as §1, §2, §3
Subsequently, endogenous peroxidases were blocked for 20 min. with 3% hydrogen peroxide and the slides were covered with a 0,25% Triton X-100 solution for 10 min. […]
Quantitative analysis was performed in complete crypts of normal mucosa. […]

cytokeratin 18 (M 30) = assay: Western Blot analysis of cytokeratin 18 cleavage (M30) in colon; details: OVX rats, BETA II at 5 μg
Experimental: as §1
Ileal mucosa and rectal colon were dissected from the animals and immediately stored in liquid nitrogen. […] Protein concentrations were determined by the method of Lowry (Dc Protein Assay, Bio-Rad). Equal amounts of sample (40 μg protein) were loaded on a Protean II ready Gel (Bio-Rad).
as §5, with “Germany). […]” for “Germany).”

intestinal mucosa = assay: Doses effect of BETA II on the intestinal mucosa
Experimental: as §1
BETA II was tested at 5, 15 and 50 μg kg-1 b.wt d-1.
Ileal mucosa and rectal colon were dissected from the animals and immediately stored in liquid nitrogen. […] Protein concentrations were determined by the method of Lowry (Dc Protein Assay, Bio-Rad). Equal amounts of sample (40 μg protein) were loaded on a Protean II ready Gel (Bio-Rad). […]
as §8

[4] = OVX rats co-treated with BETA I 100 μg and ICI 3 mg kg-1 b.wt d-1
[5] = BETA I and BETA II at the same concentration (5 μg), pooled ileal tissue, FIG. 6

| Compound | uterine wet weights (OVX rats) | PCNA protein expression, immunostaining of ileal cross sections (PCNA [1]) | PCNA expression of intestinal mucosa cells, Western Blot densitometric evaluation (PCNA [2]; pooled ileal tissue) | PCNA mRNA Expression in the intestinal Mucosa (PCNA mRNA) | activation of caspase-3 (active caspase-3; pooled ileal tissue) | PCNA expression in colonic mucosa cells (PCNA [3]) | cleavage of cytokeratin 18 (M 30) in colonic mucosa cells (cytokeratin 18 (M 30)) | further results |
| --- | --- | --- | --- | --- | --- | --- | --- | --- |
| O=c1c(-c2ccc(O)cc2)coc2cc(O)cc(O)c12 [GEN, 4′,5,7-trihydroxyisoflavone] | faint, although significant increase | significantly reduced | reduced | diminished | moderately | reduced |  |  |
| C[C@]12CC[C@@H]3c4ccc(O)cc4C[C@@H](CCCCCCCCC[S+]([O-])CCCC(F)(F)C(F)(F)F)[C@H]3[C@@H]1CC[C@@H]2O (some centres unmarked) [ICI] |  |  |  |  |  |  |  | effect of co-administration of ICI on anti-proliferative effect (PCNA) of BETA I (PCNA [2]; [4]): antogonization; effect of co-administration of ICI on pro-apoptotic effect (active caspase-3) of BETA I (active caspase-3; [4]): antogonization |
| C=C[C@]12CC[C@]3(C)[C@@H](F)[C@H](O)C[C@H]3[C@@H]1CCc1cc(O)ccc12 [BETA II, 17β-Fluoro-9α-vinyl-estra-1,3,5(10)-triene-3,16α-diol] |  |  |  |  |  | reduced | dramatically induced; also recorded: significant stimulation | effect on the uterus weight (OVX rats; BETA II at 5 μg/kg): does not show any measurable effect; down regulation of the expression of the proliferation marker PCNA compared with BETA I (PCNA [2]; [5]): improved effect; activation of the caspase-3 compared with BETA I (active caspase-3; [5]): at a higher level; activity relative to BETA I on effects regulating the intestinal homeostasis (intestinal mucosa; BETA II at 5 μg/kg vs BETA I): about 20 times; doses effect in the intestinal mucosa (intestinal mucosa; OVX rats, BETA II tested at 5, 15 and 50 μg kg-1 b.wt d-1): strongest effect at lowest tested dose of 5 μg/kg |
| C=C[C@@]12CCc3cc(O)ccc3[C@H]1CC[C@@]1(C)[C@H]2CC[C@@H]1O [BETA I, 8β-vinyl-estra-1,3,5(10)-triene-3,17β-diol] | no significant uterus stimulation | significantly reduced | reduced | diminished | dramatically promoted |  |  |  |
| C[C@]12CC[C@@H]3c4ccc(O)cc4CC[C@H]3[C@@H]1CC[C@@H]2O [E2, 17β-estradiol] | strong stimulation | slightly induced | not affected |  | remained on a low level |  | only marginally increased |  |
| C[C@]12CC[C@@H]3c4ccc(O)cc4CC[C@H]3[C@@H]1C[C@H]1OC(=O)C[C@]12O [ALPHA, 3,17-dihydroxy-19-nor-17α-pregna-1,3,5(10)-triene-21,16α-lactone] | strongly increased | slightly induced | elevation |  | moderately |  |  |  |
